Values after ≈ are worked out from the molar mass of the structure shown.
Assays:
E. coli, NIHJ = assay: Antibacterial activity (MIC), standard method of Japanese Society of Chemotherapy; assay type: cell-based; settings: Escherichia coli
Excerpt: (§1) MIC value is also shown for levofloxacin (LVFX), ciprofloxacin (CPFX), and Comparative Compound (compound of Example 1 in the Patent Document 1) for comparison with the MIC value of the compound of the present invention.

Pr. mirabilis, IFO-3849 = assay: as above; assay type: cell-based; settings: Proteus mirabilis, IFO3849
Excerpt: as §1

Pr. vulgaris, 08601 = assay: as above; assay type: cell-based; settings: Proteus vulgaris
Excerpt: as §1

Ps. aeruginosa, 32104 = assay: as above; assay type: cell-based; settings: Pseudomonas aeruginosa
Excerpt: as §1

Ps. aeruginosa, 32121 = assay: as above; assay type: cell-based; settings: Pseudomonas aeruginosa
Excerpt: as §1

S. aureus, 209P = assay: as above; assay type: cell-based; settings: Staphylococcus aureus
Excerpt: as §1

S. aureus, 870307 = assay: as above; assay type: cell-based; settings: 870307: levofloxacin-resistant methicillin-resistant Staphylococcus aureus
Excerpt: as §1

S. epidermidis, 56500 = assay: as above; assay type: cell-based; settings: Staphylococcus epidermidis
Excerpt: as §1

S. flexneri, 2A 5503 = assay: as above; assay type: cell-based; settings: Shigella flexneri, 2A5503
Excerpt: as §1

S. maltophilia, IID-1275 = assay: as above; assay type: cell-based; settings: Stenotrophomonas maltophilia, IID1275
Excerpt: as §1

S. pneumoniae, J24 = assay: as above; assay type: cell-based; settings: Streptococcus pneumoniae, J24: penicillin resistant pneumococcus (moderate resistance)
Excerpt: as §1

Ser. marcescens, 10100 = assay: as above; assay type: cell-based; settings: Serratia marcescens
Excerpt: as §1

[1] = test system: Str. faecalis, ATCC-19433; assay: as above; assay type: cell-based; settings: Enterococcus faecalis, ATCC19433
Excerpt: as §1

Str. pyogenes, G-36 = assay: as above; assay type: cell-based; settings: Streptococcus pyogenes, G36
Excerpt: as §1

[2] = test system: 6 week old male Slc:ddY mice; assay: Single dose toxicity test, intravenous injection; assay type: in vivo
Procedure: The compounds of the present invention were evaluated for their toxicity in a single dose toxicity test by administering the compounds to 6 week old male Slc:ddY mice. The compound was diluted with 0.1 mol/l NaOH/physiological saline, and filtered through Millex GS filter (0.22 μm) for sterilization. The compound was administered at a rate of 10 ml/kg and 0.2 ml/min in a single dose by intravenous injection. The compound of Example 1 in the Patent Document 1 was used for the Comparative Compound as in the case of Test Example 1.

SMILES	MIC (E. coli, NIHJ) [µg/mL]	MIC (Pr. mirabilis, IFO-3849) [µg/mL]	MIC (Pr. vulgaris, 08601) [µg/mL]	MIC (Ps. aeruginosa, 32104) [µg/mL]	MIC (Ps. aeruginosa, 32121) [µg/mL]	MIC (S. aureus, 209P) [µg/mL]	MIC (S. aureus, 870307) [µg/mL]	MIC (S. epidermidis, 56500) [µg/mL]	MIC (S. flexneri, 2A 5503) [µg/mL]	MIC (S. maltophilia, IID-1275) [µg/mL]	MIC (S. pneumoniae, J24) [µg/mL]	MIC (Ser. marcescens, 10100) [µg/mL]	MIC [1] [µg/mL]	MIC (Str. pyogenes, G-36) [µg/mL]	Number of dead mice/Total ([2]; Dose 100 mg/kg)	Number of dead mice/Total ([2]; Dose 150 mg/kg)	melting point [°C]
O=C(O)c1cn(C2CC2)c2cc(N3CCNCC3)c(F)cc2c1=O [CPFX, ciprofloxacin, reference compound]	≤ 0.003	0.012 (≈ 0.0362 µM)	≤ 0.003	0.05 (≈ 0.151 µM)	0.025 (≈ 0.0754 µM)	0.1 (≈ 0.302 µM)	> 6.25	0.2 (≈ 0.604 µM)	0.006 (≈ 0.0181 µM)	0.78 (≈ 2.35 µM)	0.1 (≈ 0.302 µM)	0.025 (≈ 0.0754 µM)	0.78 (≈ 2.35 µM)	1.56 (≈ 4.71 µM)	–	–	–
COc1c(N2C[C@H](CF)[C@H](N)C2)c(F)cc2c(=O)c(C(=O)O)cn(C3C[C@@H]3F)c12 (stereo partly shown) [Comparative Compound, reference compound]	≤ 0.003	0.025 (≈ 0.0608 µM)	0.012 (≈ 0.0292 µM)	0.2 (≈ 0.486 µM)	0.05 (≈ 0.122 µM)	0.012 (≈ 0.0292 µM)	0.2 (≈ 0.486 µM)	0.05 (≈ 0.122 µM)	0.006 (≈ 0.0146 µM)	0.2 (≈ 0.486 µM)	0.025 (≈ 0.0608 µM)	0.05 (≈ 0.122 µM)	0.1 (≈ 0.243 µM)	0.1 (≈ 0.243 µM)	1/5	2/3	–
Cc1c(N2C[C@H](CF)[C@H](N)C2)c(F)cc2c(=O)c(C(=O)O)cn(C3CC3)c12 [Compound No. 1, 7-[(3S,4S)-3-amino-4-fluoromethyl-1-pyrrolidinyl]-1-cyclopropyl-6-fluoro-1,4-dihydro-8-methyl-4-oxoquinoline-3-carboxylic acid]	≤ 0.003	0.012 (≈ 0.0318 µM)	≤ 0.003	0.05 (≈ 0.132 µM)	0.025 (≈ 0.0662 µM)	0.012 (≈ 0.0318 µM)	0.2 (≈ 0.53 µM)	0.025 (≈ 0.0662 µM)	≤ 0.003	0.1 (≈ 0.265 µM)	0.025 (≈ 0.0662 µM)	0.025 (≈ 0.0662 µM)	0.05 (≈ 0.132 µM)	0.1 (≈ 0.265 µM)	–	–	160 to 165
Cc1c(N2C[C@H](CF)[C@H](N)C2)ccc2c(=O)c(C(=O)O)cn(C3CC3)c12 [Compound No. 2, 7-[(3S,4S)-3-amino-4-fluoromethyl-1-pyrrolidinyl]-1-cyclopropyl-1,4-dihydro-8-methyl-4-oxoquinoline-3-carboxylic acid]	≤ 0.003	0.05 (≈ 0.139 µM)	0.006 (≈ 0.0167 µM)	0.1 (≈ 0.278 µM)	0.025 (≈ 0.0696 µM)	0.025 (≈ 0.0696 µM)	0.78 (≈ 2.17 µM)	0.1 (≈ 0.278 µM)	0.006 (≈ 0.0167 µM)	0.2 (≈ 0.556 µM)	0.1 (≈ 0.278 µM)	0.05 (≈ 0.139 µM)	0.2 (≈ 0.556 µM)	0.2 (≈ 0.556 µM)	–	–	203 to 205
Cc1c(N2C[C@H](CF)[C@H](N)C2)c(F)cc2c(=O)c(C(=O)O)cn([C@@H]3C[C@@H]3F)c12 [Compound No. 3, 7-[(3S,4S)-3-amino-4-fluoromethyl-1-pyrrolidinyl]-6-fluoro-1-[(2S,1R)-2-fluorocyclopropyl]-1,4-dihydro-8-methyl-4-oxoquinoline-3-carboxylic acid]	0.006 (≈ 0.0152 µM)	0.006 (≈ 0.0152 µM)	≤ 0.003	0.05 (≈ 0.126 µM)	0.025 (≈ 0.0632 µM)	0.006 (≈ 0.0152 µM)	0.39 (≈ 0.986 µM)	0.025 (≈ 0.0632 µM)	≤ 0.003	0.1 (≈ 0.253 µM)	0.025 (≈ 0.0632 µM)	0.025 (≈ 0.0632 µM)	0.1 (≈ 0.253 µM)	0.05 (≈ 0.126 µM)	0/5	0/3♭	–
CN[C@@H]1CN(c2c(F)cc3c(=O)c(C(=O)O)cn([C@@H]4C[C@@H]4F)c3c2C)C[C@@H]1CF [Compound No. 4, 7-[(3S,4S)-3-fluoromethyl-4-methylaminopyrrolidine-1-yl]-6-fluoro-1-[(2S,1R)-2-fluorocyclopropyl]-1,4-dihydro-8-methyl-4-oxoquinoline-3-carboxylic acid]	≤ 0.003	0.025 (≈ 0.0611 µM)	0.006 (≈ 0.0147 µM)	0.1 (≈ 0.244 µM)	0.05 (≈ 0.122 µM)	0.012 (≈ 0.0293 µM)	0.39 (≈ 0.953 µM)	0.05 (≈ 0.122 µM)	0.006 (≈ 0.0147 µM)	0.1 (≈ 0.244 µM)	0.05 (≈ 0.122 µM)	0.05 (≈ 0.122 µM)	0.1 (≈ 0.244 µM)	0.1 (≈ 0.244 µM)	0/5	1/2	–
CN[C@@H]1CN(c2c(F)cc3c(=O)c(C(=O)O)cn(C4CC4)c3c2C)C[C@@H]1CF [Compound No. 5, 1-cyclopropyl-6-fluoro-7-[(3S,4S)-3-fluoromethyl-4-methylaminopyrrolidine-1-yl]-8-methyl-1,4-dihydro-4-oxoquinoline-3-carboxylic acid]	≤ 0.003	0.025 (≈ 0.0639 µM)	0.006 (≈ 0.0153 µM)	0.2 (≈ 0.511 µM)	0.05 (≈ 0.128 µM)	0.012 (≈ 0.0307 µM)	0.39 (≈ 0.996 µM)	0.05 (≈ 0.128 µM)	≤ 0.003	0.05 (≈ 0.128 µM)	0.05 (≈ 0.128 µM)	0.05 (≈ 0.128 µM)	0.1 (≈ 0.255 µM)	0.1 (≈ 0.255 µM)	–	–	156 to 158
Cc1c(N2C[C@@H](N)[C@@H](C(F)F)C2)c(F)cc2c(=O)c(C(=O)O)cn([C@@H]3C[C@@H]3F)c12 [Compound No. 6, 7-[(3S,4S)-3-amino-4-difluoromethylpyrrolidine-1-yl]-6-fluoro-1-[(1R,2S)-2-fluorocyclopropyl]-8-methyl-1,4-dihydro-4-oxoquinoline-3-carboxylic acid]	≤ 0.003	0.012 (≈ 0.029 µM)	0.006 (≈ 0.0145 µM)	0.2 (≈ 0.484 µM)	0.05 (≈ 0.121 µM)	0.012 (≈ 0.029 µM)	0.2 (≈ 0.484 µM)	0.025 (≈ 0.0605 µM)	≤ 0.003	0.05 (≈ 0.121 µM)	0.05 (≈ 0.121 µM)	0.05 (≈ 0.121 µM)	0.1 (≈ 0.242 µM)	0.05 (≈ 0.121 µM)	–	–	214 to 216
C[C@H]1COc2c(N3CCN(C)CC3)c(F)cc3c(=O)c(C(=O)O)cn1c23 [LVFX, levofloxacin, reference compound]	0.012 (≈ 0.0332 µM)	0.05 (≈ 0.138 µM)	0.012 (≈ 0.0332 µM)	0.2 (≈ 0.553 µM)	0.1 (≈ 0.277 µM)	0.2 (≈ 0.553 µM)	> 6.25	0.39 (≈ 1.08 µM)	0.025 (≈ 0.0692 µM)	0.39 (≈ 1.08 µM)	0.78 (≈ 2.16 µM)	0.1 (≈ 0.277 µM)	0.78 (≈ 2.16 µM)	0.78 (≈ 2.16 µM)	–	–	–
